Results on three compounds are retold here after patent publication US9686984B2, “Macrocyclic picolinamides as fungicides” (DOW AGROSCIENCES LLC, priority 2014, dated 2017).

Type in all cases: in vivo
One assay deals with Magnaporthe grisea. As to conditions: 100 ppm, 1 Day Protectant.
A further assay deals with Zymoseptoria tritici. Briefly: Leaf Blotch of Wheat (SEPTTR) disease control on wheat seedlings. As to conditions: for pest or weed control at 121.5 g/ha: Low Volume (121.5 g/H); for pest or weed control at 100 µg/mL: High Volume (100 ppm). The method, boiled down: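 Compounds in acetone/water (1:9, 110 ppm Triton X-100) sprayed to run-off on Yuma wheat seedlings at first-leaf stage, with Septoria tritici spores inoculated before or after treatment. Plants held at 100% RH (dark then lighted dew chamber, 20° C), then in greenhouse at 20° C; % control from disease severity on 1st leaves versus untreated.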

Assay [1] deals with Blumeria graminis f. sp. hordei. Briefly: Barley Powdery Mildew (ERYSGH) disease control. The conditions noted are these: 100 ppm, 1 Day Protectant. As to the method: Technical grades of materials were dissolved in acetone, which were then mixed with nine volumes of water containing 110 ppm Triton X-100. The fungicide solutions were applied onto wheat seedlings using an automated booth sprayer to run-off. All sprayed plants were allowed to air dry prior to further handling. All fungicides were evaluated using the aforementioned method for their activity vs. all target diseases, unless stated otherwise. Wheat leaf blotch and brown rust activity were also evaluated using track spray applications, in which case the fungicides were formulated as EC formulations, containing 0.1% Trycol 5941 in the spray solutions. Wheat plants (variety Yuma) were grown from seed in a greenhouse in 50% mineral soil/50% soil-less Metro mix until the first leaf was fully emerged, with 7-10 seedlings per pot. These plants were inoculated with an aqueous spore suspension of Septoria tritici either prior to or after fungicide treatments. After inoculation the plants were kept in 100% relative humidity (one day in a dark dew chamber followed by two to three days in a lighted dew chamber at 20° C.) to permit spores to germinate and infect the leaf. The plants were then transferred to a greenhouse set at 20° C. for disease to develop. When disease symptoms were fully expressed on the 1st leaves of untreated plants, infection levels were assessed on a scale of 0 to 100 percent disease severity. Percent disease control was calculated using the ratio of disease severity on treated plants relative to untreated plants. Example J: Evaluation of Fungicidal Activity: Barley Powdery Mildew (Blumeria graminis f. sp. hordei; Synonym: Erysiphe graminis f. sp. hordei; Bayer Code […]) Barley seedlings (variety Harrington) were propagated in soil-less Metro mix, with each pot having 8 to 12 plants, and used in the test when first leaf was fully emerged. Test plants were inoculated by dusting with infected stock plants 24 hr after fungicide treatments. After inoculation the plants were kept in a greenhouse set at 20° C. for disease to develop. […]

The subject of another assay is Leptosphaeria nodorum. Briefly: Wheat Glume Blotch (LEPTNO) disease control. The conditions noted are these: 100 ppm, 1 Day Protectant. The procedure: Technical grades of materials were dissolved in acetone, which were then mixed with nine volumes of water containing 110 ppm Triton X-100. The fungicide solutions were applied onto wheat seedlings using an automated booth sprayer to run-off. All sprayed plants were allowed to air dry prior to further handling. All fungicides were evaluated using the aforementioned method for their activity vs. all target diseases, unless stated otherwise. Wheat leaf blotch and brown rust activity were also evaluated using track spray applications, in which case the fungicides were formulated as EC formulations, containing 0.1% Trycol 5941 in the spray solutions. Wheat plants (variety Yuma) were grown from seed in a greenhouse in 50% mineral soil/50% soil-less Metro mix until the first leaf was fully emerged, with 7-10 seedlings per pot. These plants were inoculated with an aqueous spore suspension of Septoria tritici either prior to or after fungicide treatments. After inoculation the plants were kept in 100% relative humidity (one day in a dark dew chamber followed by two to three days in a lighted dew chamber at 20° C.) to permit spores to germinate and infect the leaf. The plants were then transferred to a greenhouse set at 20° C. for disease to develop. When disease symptoms were fully expressed on the 1st leaves of untreated plants, infection levels were assessed on a scale of 0 to 100 percent disease severity. Percent disease control was calculated using the ratio of disease severity on treated plants relative to untreated plants. Example C: Evaluation of Fungicidal Activity: Wheat Glume Blotch (Leptosphaeria nodorum; Bayer code […]) Wheat plants (variety Yuma) were grown from seed in a greenhouse in 50% mineral soil/50% soil-less Metro mix until the first leaf was fully emerged, with 7-10 seedlings per pot. These plants were inoculated with an aqueous spore suspension of Leptosphaeria nodorum 24 hr after fungicide treatments. […]

Another assay deals with Phakopsora pachyrhizi. Nature of the assay: Asian Soybean Rust (PHAKPA) disease control. The conditions noted are these: 25 ppm. The procedure:
Example H: Evaluation of Fungicidal Activity: Asian Soybean Rust (Phakopsora pachyrhizi; Bayer Code […]) Technical grades of materials were dissolved in acetone, which were then mixed with nine volumes of water containing 0.011% Tween 20. The fungicide solutions were applied onto soybean seedlings using an automated booth sprayer to run-off. All sprayed plants were allowed to air dry prior to further handling. Soybean plants (variety Williams 82) were grown in soil-less Metro mix, with one plant per pot. Two weeks old seedlings were used for testing. Plants were inoculated either 3 days prior to or 1 day after fungicide treatments. Plants were incubated for 24 h in a dark dew room at 22° C. and 100% relative humidity then transferred to a growth room at 23° C. for disease to develop. Disease severity was assessed on the sprayed leaves.

Another assay concerns Uncinula necator. Briefly: Grape Powdery Mildew (UNCINE) disease control. The conditions noted are these: 100 ppm, 1 Day Protectant.
The subject of another assay is Venturia inaequalis. Briefly: Apple Scab (VENTIN) disease control. The conditions noted are these: 100 ppm, 1 Day Protectant.
The mark [2] stands for this setting: 24 h, 1 Day Protectant, read-out: SEPTTR disease control, 1 DP.
[3] abbreviates: 72 h, 3 Day Curative, read-out: SEPTTR disease control, 3 DC.

Where two headings read alike, the source gives them in different places.

Take `CCCC[C@H]1OCC[C@H](NC(=O)c2nccc(OC)c2OC(C)=O)C(=O)O[C@@H](C)[C@@H]1Cc1ccccc1` [Compound 2]: the “PYRIOR disease control, 1DP” value in the assay on Magnaporthe grisea is recorded as “A (>70)”. For the same compound, the pest or weed control at 121.5 g/ha in the assay with Zymoseptoria tritici (setting [2]) and in the assay with Zymoseptoria tritici (setting [3]) was over 70% each time. Further, in assay [1], the “ERYSGH disease control, 1DP” value is listed as “B (≦70)”. For the same compound, the “LEPTNO disease control, 1DP” value in the assay with Leptosphaeria nodorum is “A (>70)”.

Consider `COc1ccnc(C(=O)N[C@H]2CCO[C@H](Cc3ccccc3)[C@@H](Cc3ccccc3)[C@H](C)OC2=O)c1OC(C)=O` [Compound 3], for which the “PYRIOR disease control, 1DP” value in the assay on Magnaporthe grisea is given as “A (>70)”. Besides, the pest or weed control at 121.5 g/ha in the assay on Zymoseptoria tritici (setting [2]) and in the assay with Zymoseptoria tritici (setting [3]) was over 70% each time. Also, in assay [1], the “ERYSGH disease control, 1DP” value is on record as “B (≦70)”. Also, the “LEPTNO disease control, 1DP” value with Leptosphaeria nodorum is “A (>70)”.

For `CCC[C@H]1OCC[C@H](NC(=O)c2nccc(OC)c2OCOC(C)=O)C(=O)O[C@@H](C)[C@@H]1Cc1ccccc1` [Compound 17], the “PHAKPA disease control, 1DP” value with Phakopsora pachyrhizi (1 Day Protectant) is given as “A (>70)”. The “PHAKPA disease control, 3DC” value in the assay with Phakopsora pachyrhizi (3 Day Curative) was “A (>70)”. The “PYRIOR disease control, 1DP” value with Magnaporthe grisea is listed as “A (>70)”. Moreover, the pest or weed control at 100 µg/mL in the assay on Zymoseptoria tritici (setting [2]) and with Zymoseptoria tritici (setting [3]) was over 70% in each case. The pest or weed control at 121.5 g/ha with Zymoseptoria tritici (setting [2]) and with Zymoseptoria tritici (setting [3]) was over 70% in each case. For the same compound, the “UNCINE disease control, 1DP” value in the assay with Uncinula necator is “A (>70)”. Also, in assay [1], the “ERYSGH disease control, 1DP” value is “B (≦70)”. For the same compound, the “VENTIN disease control, 1DP” value in the assay with Venturia inaequalis is given as “B (≦70)”. For the same compound, in the assay with Leptosphaeria nodorum, the “LEPTNO disease control, 1DP” value is listed as “A (>70)”.
